In patent US8598374B2, “GPR120 receptor agonists and uses thereof” (Metabolex, Inc, priority 2008, dated 2013):

Target: T1, human GPR120 (Homo sapiens, UniProt Q5NUL3)
T1 construct: Flag (DYKDDDDK) (N); host or cells: HEK293 cells co-expressing Gqi5
T1 sequence (Q5NUL3 1-361): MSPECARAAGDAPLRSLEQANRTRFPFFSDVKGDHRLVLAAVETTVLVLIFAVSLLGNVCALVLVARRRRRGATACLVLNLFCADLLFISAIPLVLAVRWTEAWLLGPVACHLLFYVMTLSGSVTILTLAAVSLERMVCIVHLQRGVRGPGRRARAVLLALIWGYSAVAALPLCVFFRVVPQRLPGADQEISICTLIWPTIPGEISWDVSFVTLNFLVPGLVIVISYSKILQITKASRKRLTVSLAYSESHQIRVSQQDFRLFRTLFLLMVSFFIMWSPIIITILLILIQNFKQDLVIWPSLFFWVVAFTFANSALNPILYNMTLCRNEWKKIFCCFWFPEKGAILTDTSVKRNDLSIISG
Experiment: Intracellular Ca2+ assay (FLIPR Calcium 4, Flexstation) in human GPR120 stable cell line
Assay type: cell-based
Conditions: for % Activity (Ex. 25 Reference Compound): % activity at 2.5 μM compared to the maximal activity of the compound of Example 25 at 2.5 μM, HEK293 cells co-expressing Gqi5; for EC50: human GPR120 stably expressing cells, eight concentrations from 0.00001 to 20 μM
Description: Human GPR120 stable cell line was purchased from Multispan Inc (26219 Eden Landing Road, Hayward, Calif. 94545). This GPR120 cell line was generated in HEK293 cells co-expressing Gqi5. In this cell line, the Flag epitope tag (DYKDDDDK) was fused to the amino terminus of human GPR120 protein.
The concentration of intracellular Ca^2+ was measured as described below. Human GPR120 cells were plated in 96 well plates (Poly-D-Lysine coated black/clear Plate, Greiner Bio-One) at 70,000 cells per well and cultured overnight in conditions of 37° C. and 5% CO2. A Ca^2+ assay dye stock solution was prepared by adding 10 mL of assay buffer (HBSS/20 mM HEPES, pH 7.4) to FLIPR Calcium 4 Assay Bulk Kit (Molecular Devices). The 10 mL of Ca^2+ assay dye solution was prepared by further diluting 0.5 mL of Ca^2+ assay dye stock solution with 10 mL of assay buffer. The medium of the cells was removed and immediately 100 μL of the Ca^2+ assay dye solution was dispensed into each well followed by incubation at 37° C. and 5% CO2 for 50 minutes to incorporate the Ca^2+ dye into the cells. The cell plate was then placed in the Flexstation (Molecular Devices) for 20 minutes at 37° C. Compounds were dissolved in 100% DMSO and diluted to desired concentrations with assay buffer and placed in the Flexstation simultaneously with the cell plate for 20 minute incubation at 37° C. prior to reading. Fluorescence intensity was measured immediately following compound addition (25 μL/well) on the Flexstation at an excitation wavelength of 485 nm and an emission wavelength of 525 with 515 nm auto cutoff. The resulting increase in fluorescence intensities corresponds to increases in intracellular Ca^2+ levels.
Compounds were dissolved in 100% DMSO to a concentration of 20 mM to provide stock solutions. To determine activity against human GPR120, compounds were added with human GPR120 stably expressing cells (described above), at eight desired concentrations ranging from 0.00001 to 20 μM, in 96 well plates and fluorescence intensities were measured for 90 seconds with 2-second intervals. An EC50 value (concentration of the GPR120 agonist where 50% of the agonist's maximal activity is observed) was calculated using the changes (Max-Min) of fluorescence intensity.
To determine percent activity for a tested compound, the fluorescence intensity value obtained at a particular concentration were compared to the maximal fluorescence intensity value obtained for reference compound GW9508 (4-[[(3-phenoxyphenyl)methyl]amino]benzene propanoic acid; British Journal of Pharmacology 2006 148, 619-628) or the compound of Example 25. When GW9508 was used as the reference compound, the maximal activity of GW9508 at 6.7 μM was designated as 100% activity. When the compound of Example 25 was used as the reference compound, the maximal activity of the compound of Example 25 at 2.5 μM was designated as 100% activity. Typically, the GW9508 activity reached a maximum at a concentration of approximately 6.7 μM and typically the compound of Example 25 reached a maximum activity at approximately 2.5 μM.

Row | Compound | % Activity (Ex. 25 Reference Compound) | EC50
1 | CCN(CC)c1cc(COc2ccc(CC(C)C(=O)O)cc2)c2c(c1)CC(C)(C)O2 (centres unmarked) [Example 89, 3-(4-((5-(diethylamino)-2,2-dimethyl-2,3-dihydrobenzofuran-7-yl)methoxy)phenyl)-2-methylpropanoic acid] | 82.28% | 1 to 10 µM
2 | CC(Cc1ccc(OCc2cc(-n3cnnn3)cc3c2OC(C)(C)C3)cc1)C(=O)O (centres unmarked) [Example 90, 3-(4-((2,2-dimethyl-5-(1H-tetrazol-1-yl)-2,3-dihydrobenzofuran-7-yl)methoxy)phenyl)-2-methylpropanoic acid] | 75.86% | 1 to 10 µM
3 | CC(Cc1ccc(OCc2ccc(F)c3c2CC(C)(C)O3)cc1)C(=O)O (centres unmarked) [Example 91, 3-(4-((7-fluoro-2,2-dimethyl-2,3-dihydrobenzofuran-4-yl)methoxy)phenyl)-2-methylpropanoic acid] | 121.29% | 1 to 10 µM
4 | CC1(C)Cc2c(COc3ccc4c(c3)CCC4CC(=O)O)ccc(F)c2O1 (centres unmarked) [Example 94, 2-(5-((7-fluoro-2,2-dimethyl-2,3-dihydrobenzofuran-4-yl)methoxy)-2,3-dihydro-1H-inden-1-yl)acetic acid] | 98.45% | –
5 | CC(Cc1ccc(OCc2c(F)ccc3c2CC(C)(C)O3)cc1)C(=O)O (centres unmarked) [Example 96, 3-(4-((5-fluoro-2,2-dimethyl-2,3-dihydrobenzofuran-4-yl)methoxy)phenyl)-2-methylpropanoic acid] | 124.82% | –
6 | CC1(C)Cc2c(ccc(F)c2COc2c(F)cc(C3CC3C(=O)O)cc2F)O1 (centres unmarked) [Example 99, 2-(3,5-difluoro-4-((5-fluoro-2,2-dimethyl-2,3-dihydrobenzofuran-4-yl)methoxy)phenyl)cyclopropanecarboxylic acid] | 101.53% | –
7 | Cc1cc(OCC(=O)O)ccc1OCc1cc(Cl)cc2c1OC(C)(C)C2 [Example 103, 2-(4-((5-chloro-2,2-dimethyl-2,3-dihydrobenzofuran-7-yl)methoxy)-3-methylphenoxy)acetic acid] | 98.96% | –
8 | CC(CC(=O)O)c1cc(F)c(OCc2cc(Cl)cc3c2OC(C)(C)C3)c(F)c1 (centres unmarked) [Example 106, 3-(4-((5-chloro-2,2-dimethyl-2,3-dihydrobenzofuran-7-yl)methoxy)-3,5-difluorophenyl)butanoic acid] | 154.51% | –
9 | COc1cc(COc2ccc(CC(C)C(=O)O)cc2)c2c(c1)CC(C)(C)O2 (centres unmarked) [Example 108, 3-(4-((5-methoxy-2,2-dimethyl-2,3-dihydrobenzofuran-7-yl)methoxy)phenyl)-2-methylpropanoic acid] | 143.85% | –
10 | CC(Cc1cc(F)c(OCc2cc(Cl)cc3c2OC(C)C3(C)C)c(F)c1)C(=O)O (centres unmarked) [Example 109, 3-(4-((5-chloro-2,3,3-trimethyl-2,3-dihydrobenzofuran-7-yl)methoxy)-3,5-difluorophenyl)-2-methylpropanoic acid] | 72.36% | –
11 | CC(Cc1cc(F)c(OCc2cc(OCc3ccccc3)cc3c2OC(C)(C)C3)c(F)c1)C(=O)O (centres unmarked) [Example 111, 3-(4-((5-(benzyloxy)-2,2-dimethyl-2,3-dihydrobenzofuran-7-yl)methoxy)-3,5-difluorophenyl)-2-methylpropanoic acid] | 51.55% | –
12 | CC1(C)Cc2cc(Cl)cc(COc3ccc4c(c3)CC(C(=O)O)C4)c2O1 (centres unmarked) [Example 112, 5-((5-chloro-2,2-dimethyl-2,3-dihydrobenzofuran-7-yl)methoxy)-2,3-dihydro-1H-indene-2-carboxylic acid] | 115.42% | –
13 | CC1(C)Cc2cc(F)cc(COc3ccc4cc(C(=O)O)ccc4c3)c2O1 [Example 114, 6-((5-fluoro-2,2-dimethyl-2,3-dihydrobenzofuran-7-yl)methoxy)-2-naphthoic acid] | 123.58% | –
14 | CC(C)Oc1cc(OCc2cc(F)cc3c2OC(C)(C)C3)ccc1CCC(=O)O [Example 115, 3-(4-((5-fluoro-2,2-dimethyl-2,3-dihydrobenzofuran-7-yl)methoxy)-2-isopropoxyphenyl)propanoic acid] | 151.78% | –
15 | CC(C)Oc1cc(OCc2cc(Cl)cc3c2OC(C)(C)C3)ccc1CCC(=O)O [Example 116, 3-(4-((5-chloro-2,2-dimethyl-2,3-dihydrobenzofuran-7-yl)methoxy)-2-isopropoxyphenyl)propanoic acid] | 145.6% | –
16 | Cc1cc2cc(Cl)cc(COc3ccc(CC(C)C(=O)O)cc3F)c2o1 (centres unmarked) [Example 120, 3-(4-((5-chloro-2-methylbenzofuran-7-yl)methoxy)-3-fluorophenyl)-2-methylpropanoic acid] | 104.49% | –
17 | CN(C)Cc1cc(OCc2cc(F)cc3c2OC(C)(C)C3)ccc1CCC(=O)O [Example 122, 3-(2-((dimethylamino)methyl)-4-((5-fluoro-2,2-dimethyl-2,3-dihydrobenzofuran-7-yl)methoxy)phenyl)propanoic acid] | 3.58% | –
18 | CC(=O)Nc1cc(COc2ccc(CC(C)C(=O)O)cc2)c2c(c1)CC(C)(C)O2 (centres unmarked) [Example 123, 3-(4-((5-acetamido-2,2-dimethyl-2,3-dihydrobenzofuran-7-yl)methoxy)phenyl)-2-methylpropanoic acid] | 47.01% | –
19 | CC(Cc1ccc(OCc2cc(OC(F)(F)F)cc3c2OC(C)(C)C3)cc1)C(=O)O (centres unmarked) [Example 124, 3-(4-((2,2-dimethyl-5-(trifluoromethoxy)-2,3-dihydrobenzofuran-7-yl)methoxy)phenyl)-2-methylpropanoic acid] | 131.64% | –
20 | Cc1cc2c(OCc3cc(F)cc4c3OC(C)(C)C4)ccc(CCC(=O)O)c2o1 [Example 125, 3-(4-((5-fluoro-2,2-dimethyl-2,3-dihydrobenzofuran-7-yl)methoxy)-2-methylbenzofuran-7-yl)propanoic acid] | 32.57% | 1 to 10 µM
21 | CC(=O)NCCOC(=O)C(C)Cc1ccc(OCc2cc(Cl)cc3c2OC(C)(C)C3)c(C(F)(F)F)c1 (centres unmarked) [Example 126, 2-acetamidoethyl 3-(4-((5-chloro-2,2-dimethyl-2,3-dihydrobenzofuran-7-yl)methoxy)-3-(trifluoromethyl)phenyl)-2-methylpropanoate] | 47.02% | 1 to 10 µM
22 | CC1(C)Cc2cc(Cl)cc(CNc3ccc(CCC(=O)O)cc3)c2O1 [Example 127] | 152.93% | –
23 | CC(Cc1ccc(OCc2cc(Cl)cc3c2OC(C)(C)C3O)cc1)C(=O)O (centres unmarked) [Example 130, 3-(4-((5-chloro-3-hydroxy-2,2-dimethyl-2,3-dihydrobenzofuran-7-yl)methoxy)phenyl)-2-methylpropanoic acid] | 103.85% | –
24 | CC1(C)Cc2cc(F)cc(COc3ccc(CC(=O)O)cc3)c2O1 [Example 133, 2-(4-((5-fluoro-2,2-dimethyl-2,3-dihydrobenzofuran-7-yl)methoxy)phenyl)acetic acid] | 103.4% | –
